Experimental data taken from patent publication US20050197350A1, “Novel quinoline, tetrahydroquinazoline, and pyrimidine derivatives and methods of treatment related to the use thereof” (TAISHO PHARMACEUTICAL CO., LTD., priority 2003, published 2005).

The molecules below were run on MCH receptors (assay: MCH receptor activity class (method not given)). Conditions: activity class per percent of control at 10^-7 M or IC50.

SMILES	class
COc1cc(CNC[C@H]2CC[C@@H](Nc3cc(N(C)C)c4ccccc4n3)CC2)cc(I)c1O [compound 1139]	3 (Class 3 The value of percent of control at 10^−7 M was more than 60% or the value of IC50 was more than 200 nM.)
Cc1cc(CNC[C@H]2CC[C@@H](Nc3cc(N(C)C)c4ccccc4n3)CC2)cc(C)c1O [compound 1140]	3 (Class 3 The value of percent of control at 10^−7 M was more than 60% or the value of IC50 was more than 200 nM.)
COc1ccc(CNC[C@H]2CC[C@@H](Nc3cc(N(C)C)c4ccccc4n3)CC2)cc1 [compound 1141]	3 (Class 3 The value of percent of control at 10^−7 M was more than 60% or the value of IC50 was more than 200 nM.)
CN(C)c1cc(N[C@H]2CC[C@@H](CNCc3ccc4c(c3)OCCO4)CC2)nc2ccccc12 [compound 1142]	3 (Class 3 The value of percent of control at 10^−7 M was more than 60% or the value of IC50 was more than 200 nM.)
CN(C)c1cc(N[C@H]2CC[C@@H](CNCc3cccc(Br)c3)CC2)nc2ccccc12 [compound 1143]	3 (Class 3 The value of percent of control at 10^−7 M was more than 60% or the value of IC50 was more than 200 nM.)
COc1cc(OC)c(CNC[C@H]2CC[C@@H](Nc3cc(N(C)C)c4ccccc4n3)CC2)cc1Br [compound 1144]	2 (Class 2: The value of percent of control at 10^−7 M was from 40% to 60% or the value of IC′50 was from 50 nM to 200 nM.)
COc1ccc(Br)cc1CNC[C@H]1CC[C@@H](Nc2cc(N(C)C)c3ccccc3n2)CC1 [compound 1145]	3 (Class 3 The value of percent of control at 10^−7 M was more than 60% or the value of IC50 was more than 200 nM.)
CN(C)c1cc(N[C@H]2CC[C@@H](CNCc3ccc(O)cc3Cl)CC2)nc2ccccc12 [compound 1146]	3 (Class 3 The value of percent of control at 10^−7 M was more than 60% or the value of IC50 was more than 200 nM.)
CN(C)c1cc(N[C@H]2CC[C@@H](CNCc3ccccc3C#N)CC2)nc2ccccc12 [compound 1147]	3 (Class 3 The value of percent of control at 10^−7 M was more than 60% or the value of IC50 was more than 200 nM.)
CN(C)c1cc(N[C@H]2CC[C@@H](CNCc3ccc(Cl)cc3)CC2)nc2ccccc12 [compound 1149]	3 (Class 3 The value of percent of control at 10^−7 M was more than 60% or the value of IC50 was more than 200 nM.)
CCN(CC)c1ccc(CNC[C@H]2CC[C@@H](Nc3cc(N(C)C)c4ccccc4n3)CC2)cc1 [compound 1150]	3 (Class 3 The value of percent of control at 10^−7 M was more than 60% or the value of IC50 was more than 200 nM.)
CN(C)c1ccc(CNC[C@H]2CC[C@@H](Nc3cc(N(C)C)c4ccccc4n3)CC2)cc1 [compound 1151]	3 (Class 3 The value of percent of control at 10^−7 M was more than 60% or the value of IC50 was more than 200 nM.)
CCn1c2ccccc2c2cc(CNC[C@H]3CC[C@@H](Nc4cc(N(C)C)c5ccccc5n4)CC3)ccc21 [compound 1152]	3 (Class 3 The value of percent of control at 10^−7 M was more than 60% or the value of IC50 was more than 200 nM.)
CN(C)c1cc(N[C@H]2CC[C@@H](CNCc3cc(C(F)(F)F)ccc3F)CC2)nc2ccccc12 [compound 1153]	3 (Class 3 The value of percent of control at 10^−7 M was more than 60% or the value of IC50 was more than 200 nM.)
CN(C)c1cc(N[C@H]2CC[C@@H](CNCc3ccc(O)cc3)CC2)nc2ccccc12 [compound 1154]	3 (Class 3 The value of percent of control at 10^−7 M was more than 60% or the value of IC50 was more than 200 nM.)

Same assay, conditions: class by percent of control at 10^-7 M or IC50

SMILES	class
CN(C)c1cc(N[C@H]2CC[C@@H](CNCc3ccc(CO)o3)CC2)nc2ccccc12 [compound 1155]	3 (Class 3 The value of percent of control at 10^−7 M was more than 60% or the value of IC50 was more than 200 nM.)
CC(C)Oc1ccc(CNC[C@H]2CC[C@@H](Nc3cc(N(C)C)c4ccccc4n3)CC2)cc1 [compound 1156]	3 (Class 3 The value of percent of control at 10^−7 M was more than 60% or the value of IC50 was more than 200 nM.)
CCc1ccc(CNC[C@H]2CC[C@@H](Nc3cc(N(C)C)c4ccccc4n3)CC2)s1 [compound 1157]	3 (Class 3 The value of percent of control at 10^−7 M was more than 60% or the value of IC50 was more than 200 nM.)
CN(C)c1cc(N[C@H]2CC[C@@H](CNCC=C(c3ccccc3)c3ccccc3)CC2)nc2ccccc12 [compound 1158]	1 (Class 1: The value of percent of control at 10^−7 M was less than 40% or the value of IC50 was less than 50 nM.)
CCOc1cc(CNC[C@H]2CC[C@@H](Nc3cc(N(C)C)c4ccccc4n3)CC2)ccc1O [compound 1159]	3 (Class 3 The value of percent of control at 10^−7 M was more than 60% or the value of IC50 was more than 200 nM.)
CN(C)c1cc(N[C@H]2CC[C@@H](CNCc3ccc(N(C)C)c4ccccc34)CC2)nc2ccccc12 [compound 1160]	3 (Class 3 The value of percent of control at 10^−7 M was more than 60% or the value of IC50 was more than 200 nM.)
COc1cc(OC)c(CNC[C@H]2CC[C@@H](Nc3cc(N(C)C)c4ccccc4n3)CC2)c(OC)c1 [compound 1161]	2 (Class 2: The value of percent of control at 10^−7 M was from 40% to 60% or the value of IC′50 was from 50 nM to 200 nM.)
CN(C)c1cc(N[C@H]2CC[C@@H](CNCc3cc(Cl)cc(Br)c3O)CC2)nc2ccccc12 [compound 1162]	3 (Class 3 The value of percent of control at 10^−7 M was more than 60% or the value of IC50 was more than 200 nM.)
CN(C)c1cc(N[C@H]2CC[C@@H](CNCc3cccc(C#N)c3)CC2)nc2ccccc12 [compound 1163]	3 (Class 3 The value of percent of control at 10^−7 M was more than 60% or the value of IC50 was more than 200 nM.)
COc1ccc(F)c(CNC[C@H]2CC[C@@H](Nc3cc(N(C)C)c4ccccc4n3)CC2)c1 [compound 1164]	3 (Class 3 The value of percent of control at 10^−7 M was more than 60% or the value of IC50 was more than 200 nM.)
CN(C)c1cc(N[C@H]2CC[C@@H](CNCc3ccccc3SC(F)(F)F)CC2)nc2ccccc12 [compound 1165]	3 (Class 3 The value of percent of control at 10^−7 M was more than 60% or the value of IC50 was more than 200 nM.)
CCOc1ccc(Br)cc1CNC[C@H]1CC[C@@H](Nc2cc(N(C)C)c3ccccc3n2)CC1 [compound 1166]	3 (Class 3 The value of percent of control at 10^−7 M was more than 60% or the value of IC50 was more than 200 nM.)
COc1ccc(CNC[C@H]2CC[C@@H](Nc3cc(N(C)C)c4ccccc4n3)CC2)c(OC)c1C [compound 1167]	3 (Class 3 The value of percent of control at 10^−7 M was more than 60% or the value of IC50 was more than 200 nM.)
CN(C)c1cc(N[C@H]2CC[C@@H](CNCc3ccccc3OC(F)(F)F)CC2)nc2ccccc12 [compound 1168]	3 (Class 3 The value of percent of control at 10^−7 M was more than 60% or the value of IC50 was more than 200 nM.)
CCOc1ccc(OCC)c(CNC[C@H]2CC[C@@H](Nc3cc(N(C)C)c4ccccc4n3)CC2)c1 [compound 1169]	2 (Class 2: The value of percent of control at 10^−7 M was from 40% to 60% or the value of IC′50 was from 50 nM to 200 nM.)
CCOc1ccc(CNC[C@H]2CC[C@@H](Nc3cc(N(C)C)c4ccccc4n3)CC2)c(OCC)c1 [compound 1170]	2 (Class 2: The value of percent of control at 10^−7 M was from 40% to 60% or the value of IC′50 was from 50 nM to 200 nM.)
COc1c(Br)cc(Br)cc1CNC[C@H]1CC[C@@H](Nc2cc(N(C)C)c3ccccc3n2)CC1 [compound 1171]	2 (Class 2: The value of percent of control at 10^−7 M was from 40% to 60% or the value of IC′50 was from 50 nM to 200 nM.)
CN(C)c1cc(N[C@H]2CC[C@@H](CNCc3ccccc3OC(F)F)CC2)nc2ccccc12 [compound 1172]	3 (Class 3 The value of percent of control at 10^−7 M was more than 60% or the value of IC50 was more than 200 nM.)
COc1ccc(F)cc1CNC[C@H]1CC[C@@H](Nc2cc(N(C)C)c3ccccc3n2)CC1 [compound 1173]	3 (Class 3 The value of percent of control at 10^−7 M was more than 60% or the value of IC50 was more than 200 nM.)
CCOc1cc(OCC)c(OCC)cc1CNC[C@H]1CC[C@@H](Nc2cc(N(C)C)c3ccccc3n2)CC1 [compound 1174]	2 (Class 2: The value of percent of control at 10^−7 M was from 40% to 60% or the value of IC′50 was from 50 nM to 200 nM.)
COc1cc(OC)c(OC)cc1CNC[C@H]1CC[C@@H](Nc2cc(N(C)C)c3ccccc3n2)CC1 [compound 1175]	2 (Class 2: The value of percent of control at 10^−7 M was from 40% to 60% or the value of IC′50 was from 50 nM to 200 nM.)
COc1cccc(CNC[C@H]2CC[C@@H](Nc3cc(N(C)C)c4ccccc4n3)CC2)c1OC [compound 1176]	3 (Class 3 The value of percent of control at 10^−7 M was more than 60% or the value of IC50 was more than 200 nM.)
C=CCOc1ccccc1CNC[C@H]1CC[C@@H](Nc2cc(N(C)C)c3ccccc3n2)CC1 [compound 1177]	2 (Class 2: The value of percent of control at 10^−7 M was from 40% to 60% or the value of IC′50 was from 50 nM to 200 nM.)
CN(C)c1cc(N[C@H]2CC[C@@H](CNCc3csc4ccccc34)CC2)nc2ccccc12 [compound 1178]	3 (Class 3 The value of percent of control at 10^−7 M was more than 60% or the value of IC50 was more than 200 nM.)
CN(C)c1cc(N[C@H]2CC[C@@H](CNCc3cn(C)c4ccccc34)CC2)nc2ccccc12 [compound 1179]	3 (Class 3 The value of percent of control at 10^−7 M was more than 60% or the value of IC50 was more than 200 nM.)
Cc1ccc(CNC[C@H]2CC[C@@H](Nc3cc(N(C)C)c4ccccc4n3)CC2)s1 [compound 1180]	3 (Class 3 The value of percent of control at 10^−7 M was more than 60% or the value of IC50 was more than 200 nM.)
Cc1cc(C)c(CNC[C@H]2CC[C@@H](Nc3cc(N(C)C)c4ccccc4n3)CC2)c(C)c1 [compound 1181]	3 (Class 3 The value of percent of control at 10^−7 M was more than 60% or the value of IC50 was more than 200 nM.)
CN(C)c1cc(N[C@H]2CC[C@@H](CNCc3ccc4c(c3)OCO4)CC2)nc2ccccc12 [compound 1182]	3 (Class 3 The value of percent of control at 10^−7 M was more than 60% or the value of IC50 was more than 200 nM.)
